Measurements from ChEMBL document CHEMBL1201862, “PubChem BioAssay data set” (2004).
Calls of active or inactive are those of the source.

What was measured:
[1] = target: DNA damage-inducible transcript 3 protein (Mus musculus, UniProt P35639); format: functional, Cricetulus griseus
BJ [2] = experiment: cells; format: functional, cell-based; conditions: Homo sapiens
HEK293 [3] = experiment: cells; format: functional, cell-based; conditions: Homo sapiens
[4] = target: Nucleotide-binding oligomerization domain-containing protein 2 (Homo sapiens, UniProt Q9HC29); experiment: NOD2 signaling inhibitors, cell-based, luminescence, uHTS, HEK293 (AID 1566); format: functional
[5] = target: T1, Replicative DNA helicase DnaB (Mycobacterium tuberculosis, UniProt P9WMR3); experiment: DnaB intein splicing inhibitors, dose response, biochemical, cell-free fluorescence (AID 449749); format: functional
T1 sequence (P9WMR3 whole entry): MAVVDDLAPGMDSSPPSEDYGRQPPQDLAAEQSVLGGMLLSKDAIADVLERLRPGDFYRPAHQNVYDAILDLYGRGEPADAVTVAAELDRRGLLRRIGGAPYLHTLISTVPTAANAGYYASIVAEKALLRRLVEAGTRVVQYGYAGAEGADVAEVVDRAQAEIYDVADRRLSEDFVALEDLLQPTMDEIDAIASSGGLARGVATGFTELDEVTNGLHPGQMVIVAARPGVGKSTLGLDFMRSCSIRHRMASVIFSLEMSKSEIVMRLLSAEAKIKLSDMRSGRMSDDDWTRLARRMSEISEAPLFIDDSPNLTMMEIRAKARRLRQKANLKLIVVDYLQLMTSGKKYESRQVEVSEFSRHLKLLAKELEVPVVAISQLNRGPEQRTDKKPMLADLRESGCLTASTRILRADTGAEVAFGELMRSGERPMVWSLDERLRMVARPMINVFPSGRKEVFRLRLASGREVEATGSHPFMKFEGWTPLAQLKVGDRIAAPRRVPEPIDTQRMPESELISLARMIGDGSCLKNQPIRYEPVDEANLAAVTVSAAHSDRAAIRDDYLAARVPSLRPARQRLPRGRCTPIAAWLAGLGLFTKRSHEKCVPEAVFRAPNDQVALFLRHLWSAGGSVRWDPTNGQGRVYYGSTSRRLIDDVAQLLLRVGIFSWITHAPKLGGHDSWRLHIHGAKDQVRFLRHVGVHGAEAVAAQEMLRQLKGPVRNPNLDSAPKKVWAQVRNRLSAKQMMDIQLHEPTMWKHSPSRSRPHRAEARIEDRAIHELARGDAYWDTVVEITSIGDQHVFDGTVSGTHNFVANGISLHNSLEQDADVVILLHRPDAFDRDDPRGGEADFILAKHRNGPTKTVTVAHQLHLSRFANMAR

[6] = microbe, parasite or virus in culture; format: functional; conditions: Mycobacterium tuberculosis
HEK293 [7] = experiment: cells; format: functional, cell-based; conditions: Homo sapiens; remark: listed apart in the source
HEK293 [8] = experiment: NOD2 signaling inhibitors in MDP-stimulated cells, cell-based, uHTS, luminescence (AID 2001); format: functional; conditions: Homo sapiens
[9] = target: T2, Microphthalmia-associated transcription factor (Homo sapiens, UniProt O75030); experiment: TRPM1 promoter luciferase signal decrease, dose response, MITF inhibitor project, cell-based, SK-MEL-5, cherry-picked, set 3 (AID 493073); format: functional
T2 sequence (O75030 whole entry): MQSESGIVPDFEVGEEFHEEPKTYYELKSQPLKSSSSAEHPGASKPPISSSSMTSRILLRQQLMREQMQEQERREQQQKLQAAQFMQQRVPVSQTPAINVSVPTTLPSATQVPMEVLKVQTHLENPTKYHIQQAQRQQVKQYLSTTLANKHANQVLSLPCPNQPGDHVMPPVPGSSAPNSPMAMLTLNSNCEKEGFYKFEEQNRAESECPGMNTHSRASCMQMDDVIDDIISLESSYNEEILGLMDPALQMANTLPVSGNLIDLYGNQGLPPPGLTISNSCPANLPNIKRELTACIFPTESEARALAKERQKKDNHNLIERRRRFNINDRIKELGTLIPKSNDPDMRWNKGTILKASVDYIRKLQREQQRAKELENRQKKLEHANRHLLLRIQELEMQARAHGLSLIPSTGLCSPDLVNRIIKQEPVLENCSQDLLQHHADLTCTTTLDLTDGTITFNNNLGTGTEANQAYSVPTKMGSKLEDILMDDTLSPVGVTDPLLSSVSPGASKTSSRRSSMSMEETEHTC

BJ [10] = experiment: cytotoxicity toward BJ-TERT-LT-ST fibroblasts, dose response, cell-based, RAS-independent, luminescence (AID 1935); format: functional; conditions: Homo sapiens;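 note: BJ fibroblasts immortalized with TERT plus LT and ST oncogenes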
Protein RecA = target: T3, Protein RecA (Mycobacterium tuberculosis, UniProt P9WHJ3); experiment: Fluorescence Cell-Free Homogeneous Dose Retest to Identify Inhibitors of RecA-Intein Splicing Activity. [Related pubchem assays (depositor defined):AID2097, AID2223, AID489010, AID492950]; format: functional
T3 sequence (P9WHJ3 whole entry): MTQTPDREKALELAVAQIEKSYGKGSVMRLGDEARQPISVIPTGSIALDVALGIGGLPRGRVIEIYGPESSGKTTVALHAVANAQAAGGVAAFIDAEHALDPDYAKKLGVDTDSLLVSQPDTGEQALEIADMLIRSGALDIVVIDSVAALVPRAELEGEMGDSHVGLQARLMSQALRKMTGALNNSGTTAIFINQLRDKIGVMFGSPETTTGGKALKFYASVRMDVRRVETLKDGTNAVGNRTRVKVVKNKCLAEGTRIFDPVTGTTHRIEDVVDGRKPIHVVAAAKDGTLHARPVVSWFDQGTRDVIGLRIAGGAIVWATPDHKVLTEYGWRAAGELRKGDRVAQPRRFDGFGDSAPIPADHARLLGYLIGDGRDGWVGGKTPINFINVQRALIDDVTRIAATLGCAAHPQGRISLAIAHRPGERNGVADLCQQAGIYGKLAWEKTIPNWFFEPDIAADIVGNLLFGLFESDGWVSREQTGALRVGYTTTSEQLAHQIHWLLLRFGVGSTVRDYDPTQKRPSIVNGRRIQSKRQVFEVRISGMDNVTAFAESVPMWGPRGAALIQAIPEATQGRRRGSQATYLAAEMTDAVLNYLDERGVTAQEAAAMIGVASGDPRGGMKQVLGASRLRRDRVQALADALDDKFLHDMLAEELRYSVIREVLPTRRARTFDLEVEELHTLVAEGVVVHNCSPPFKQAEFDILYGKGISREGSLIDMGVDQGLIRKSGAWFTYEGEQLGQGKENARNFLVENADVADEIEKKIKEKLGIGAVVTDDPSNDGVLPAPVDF

HEK293 [11] = experiment: cells; format: functional, cell-based; conditions: Homo sapiens; remark: listed apart in the source
[12] = cytotoxicity toward DRD oncogenic fibroblasts, dose response, cell-based, non-viral oncogenic, luminescence (AID 1934); format: functional; conditions: Homo sapiens
HEK293 [13] = experiment: NOD1 signaling inhibitors, primary screen, cell-based, luminescence, uHTS (AID 1578); format: functional; conditions: Homo sapiens
BJ [14] = experiment: cytotoxicity toward BJ-TERT fibroblasts, dose response, cell-based, RAS-independent, luminescence (AID 1933); format: functional; conditions: Homo sapiens
[15] = target: T4, Tyrosine-protein phosphatase non-receptor type 7 (Homo sapiens, UniProt P35236); experiment: redox-dependent HePTP inhibition, mechanism study, biochemical, fluorescence (AID 2068); format: functional
T4 sequence (P35236 whole entry): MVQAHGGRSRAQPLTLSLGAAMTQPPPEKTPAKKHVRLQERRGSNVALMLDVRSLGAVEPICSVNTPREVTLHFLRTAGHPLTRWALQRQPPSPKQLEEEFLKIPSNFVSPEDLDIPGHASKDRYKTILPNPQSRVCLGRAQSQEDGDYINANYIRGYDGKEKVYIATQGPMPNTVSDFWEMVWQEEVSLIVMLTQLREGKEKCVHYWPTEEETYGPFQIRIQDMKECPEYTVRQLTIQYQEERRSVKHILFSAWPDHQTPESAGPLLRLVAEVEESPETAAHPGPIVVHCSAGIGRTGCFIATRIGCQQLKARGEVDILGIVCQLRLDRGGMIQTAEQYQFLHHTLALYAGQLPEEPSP

[16] = target: T5, Dual specificity protein phosphatase 6 (Rattus norvegicus, UniProt Q64346); format: functional;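 note: confirmatory in vitro dose-response testing of MKP-3 inhibition; recombinant His-tagged MKP-3 made in E. coli BL21 with OMFP substrate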
T5 sequence (Q64346 whole entry): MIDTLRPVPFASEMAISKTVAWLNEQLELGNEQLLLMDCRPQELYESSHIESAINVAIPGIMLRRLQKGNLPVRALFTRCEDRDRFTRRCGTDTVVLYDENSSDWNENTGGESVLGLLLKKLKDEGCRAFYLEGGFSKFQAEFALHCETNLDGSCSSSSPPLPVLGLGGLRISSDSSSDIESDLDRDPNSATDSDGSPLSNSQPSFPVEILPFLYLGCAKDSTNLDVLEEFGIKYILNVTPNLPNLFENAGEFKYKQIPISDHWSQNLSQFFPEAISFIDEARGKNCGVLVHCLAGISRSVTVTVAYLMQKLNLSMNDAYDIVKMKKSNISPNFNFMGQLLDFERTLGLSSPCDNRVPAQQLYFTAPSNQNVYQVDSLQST

[17] = target: Dual specificity protein phosphatase 3 (Homo sapiens, UniProt P51452); experiment: SAR VHR1 Fluorescent Assay for In Vitro dose response studies Set 2. [Related pubchem assays (depositor defined):AID1654, AID1661, AID1878]; format: functional
Ion channel NompC = Ion channel NompC (Danio rerio, UniProt Q7T1G6); experiment: Dose response cell-based high-throughput screening assay for agonists of the transient receptor potential channel N1 (TRPN1). [Related pubchem assays (depositor defined):AID1424, AID1448]; format: functional
Mucolipin-3 = Mucolipin-3 (Homo sapiens, UniProt Q8TDD5); experiment: Fluorescence counterscreen assay for […] agonists: dose response cell-based high-throughput screening assay to identify agonists of the transient receptor potential channel ML3 (TRPML3). [Related pubchem assays: 1424, 1448 ]; format: functional
Sequence of Mucolipin-3 (Q8TDD5 whole entry): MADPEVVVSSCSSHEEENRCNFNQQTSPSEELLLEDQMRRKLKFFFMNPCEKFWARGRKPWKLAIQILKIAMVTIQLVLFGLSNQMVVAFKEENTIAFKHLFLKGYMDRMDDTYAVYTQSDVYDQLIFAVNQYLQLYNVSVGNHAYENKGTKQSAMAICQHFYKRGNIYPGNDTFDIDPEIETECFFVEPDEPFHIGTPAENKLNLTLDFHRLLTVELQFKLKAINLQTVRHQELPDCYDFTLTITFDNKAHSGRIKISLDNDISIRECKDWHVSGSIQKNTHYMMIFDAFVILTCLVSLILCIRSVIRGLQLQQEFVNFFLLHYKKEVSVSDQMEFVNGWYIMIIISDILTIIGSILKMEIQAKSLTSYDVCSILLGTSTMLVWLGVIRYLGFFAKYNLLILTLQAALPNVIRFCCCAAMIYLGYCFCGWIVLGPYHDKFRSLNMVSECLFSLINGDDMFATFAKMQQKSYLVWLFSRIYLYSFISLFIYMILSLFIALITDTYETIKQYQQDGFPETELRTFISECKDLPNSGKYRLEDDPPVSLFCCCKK

Sequence of DNA damage-inducible transcript 3 protein (P35639 whole entry): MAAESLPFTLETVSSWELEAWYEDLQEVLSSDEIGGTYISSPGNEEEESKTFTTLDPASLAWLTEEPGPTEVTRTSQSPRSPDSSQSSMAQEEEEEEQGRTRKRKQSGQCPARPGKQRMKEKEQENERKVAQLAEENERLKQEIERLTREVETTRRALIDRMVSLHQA
Sequence of Dual specificity protein phosphatase 3 (P51452 whole entry): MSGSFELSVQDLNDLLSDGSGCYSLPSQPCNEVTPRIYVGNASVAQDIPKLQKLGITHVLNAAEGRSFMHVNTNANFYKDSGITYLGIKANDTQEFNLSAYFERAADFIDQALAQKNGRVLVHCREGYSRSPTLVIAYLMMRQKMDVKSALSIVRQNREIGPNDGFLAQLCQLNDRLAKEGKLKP
Sequence of Nucleotide-binding oligomerization domain-containing protein 2 (Q9HC29 whole entry, the tested form may be a part): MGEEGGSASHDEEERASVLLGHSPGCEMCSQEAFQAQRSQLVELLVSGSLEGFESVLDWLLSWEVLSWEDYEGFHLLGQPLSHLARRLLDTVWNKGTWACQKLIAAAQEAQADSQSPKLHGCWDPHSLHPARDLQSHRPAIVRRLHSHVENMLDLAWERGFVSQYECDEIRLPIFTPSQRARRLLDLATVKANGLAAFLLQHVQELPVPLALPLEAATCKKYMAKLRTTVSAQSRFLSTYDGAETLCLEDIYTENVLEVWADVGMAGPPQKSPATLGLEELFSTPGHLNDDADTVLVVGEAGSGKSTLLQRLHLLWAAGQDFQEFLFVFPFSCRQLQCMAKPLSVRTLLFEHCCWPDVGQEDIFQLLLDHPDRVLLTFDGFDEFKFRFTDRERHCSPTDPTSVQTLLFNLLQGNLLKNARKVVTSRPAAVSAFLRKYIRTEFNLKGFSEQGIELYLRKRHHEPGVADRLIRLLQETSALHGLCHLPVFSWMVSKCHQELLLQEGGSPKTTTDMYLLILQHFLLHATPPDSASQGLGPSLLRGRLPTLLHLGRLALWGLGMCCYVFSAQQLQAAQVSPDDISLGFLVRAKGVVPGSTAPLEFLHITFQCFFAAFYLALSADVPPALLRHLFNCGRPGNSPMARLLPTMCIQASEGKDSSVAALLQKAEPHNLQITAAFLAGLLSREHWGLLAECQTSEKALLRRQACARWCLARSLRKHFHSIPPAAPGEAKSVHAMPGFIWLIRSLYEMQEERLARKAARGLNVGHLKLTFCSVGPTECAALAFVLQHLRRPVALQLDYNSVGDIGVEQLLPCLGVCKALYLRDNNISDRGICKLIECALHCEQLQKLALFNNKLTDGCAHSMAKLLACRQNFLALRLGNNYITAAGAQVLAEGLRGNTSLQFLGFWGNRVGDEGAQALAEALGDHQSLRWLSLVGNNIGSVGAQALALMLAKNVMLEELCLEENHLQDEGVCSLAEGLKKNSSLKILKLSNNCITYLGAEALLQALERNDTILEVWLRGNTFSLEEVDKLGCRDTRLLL
Sequence of Ion channel NompC (Q7T1G6 whole entry): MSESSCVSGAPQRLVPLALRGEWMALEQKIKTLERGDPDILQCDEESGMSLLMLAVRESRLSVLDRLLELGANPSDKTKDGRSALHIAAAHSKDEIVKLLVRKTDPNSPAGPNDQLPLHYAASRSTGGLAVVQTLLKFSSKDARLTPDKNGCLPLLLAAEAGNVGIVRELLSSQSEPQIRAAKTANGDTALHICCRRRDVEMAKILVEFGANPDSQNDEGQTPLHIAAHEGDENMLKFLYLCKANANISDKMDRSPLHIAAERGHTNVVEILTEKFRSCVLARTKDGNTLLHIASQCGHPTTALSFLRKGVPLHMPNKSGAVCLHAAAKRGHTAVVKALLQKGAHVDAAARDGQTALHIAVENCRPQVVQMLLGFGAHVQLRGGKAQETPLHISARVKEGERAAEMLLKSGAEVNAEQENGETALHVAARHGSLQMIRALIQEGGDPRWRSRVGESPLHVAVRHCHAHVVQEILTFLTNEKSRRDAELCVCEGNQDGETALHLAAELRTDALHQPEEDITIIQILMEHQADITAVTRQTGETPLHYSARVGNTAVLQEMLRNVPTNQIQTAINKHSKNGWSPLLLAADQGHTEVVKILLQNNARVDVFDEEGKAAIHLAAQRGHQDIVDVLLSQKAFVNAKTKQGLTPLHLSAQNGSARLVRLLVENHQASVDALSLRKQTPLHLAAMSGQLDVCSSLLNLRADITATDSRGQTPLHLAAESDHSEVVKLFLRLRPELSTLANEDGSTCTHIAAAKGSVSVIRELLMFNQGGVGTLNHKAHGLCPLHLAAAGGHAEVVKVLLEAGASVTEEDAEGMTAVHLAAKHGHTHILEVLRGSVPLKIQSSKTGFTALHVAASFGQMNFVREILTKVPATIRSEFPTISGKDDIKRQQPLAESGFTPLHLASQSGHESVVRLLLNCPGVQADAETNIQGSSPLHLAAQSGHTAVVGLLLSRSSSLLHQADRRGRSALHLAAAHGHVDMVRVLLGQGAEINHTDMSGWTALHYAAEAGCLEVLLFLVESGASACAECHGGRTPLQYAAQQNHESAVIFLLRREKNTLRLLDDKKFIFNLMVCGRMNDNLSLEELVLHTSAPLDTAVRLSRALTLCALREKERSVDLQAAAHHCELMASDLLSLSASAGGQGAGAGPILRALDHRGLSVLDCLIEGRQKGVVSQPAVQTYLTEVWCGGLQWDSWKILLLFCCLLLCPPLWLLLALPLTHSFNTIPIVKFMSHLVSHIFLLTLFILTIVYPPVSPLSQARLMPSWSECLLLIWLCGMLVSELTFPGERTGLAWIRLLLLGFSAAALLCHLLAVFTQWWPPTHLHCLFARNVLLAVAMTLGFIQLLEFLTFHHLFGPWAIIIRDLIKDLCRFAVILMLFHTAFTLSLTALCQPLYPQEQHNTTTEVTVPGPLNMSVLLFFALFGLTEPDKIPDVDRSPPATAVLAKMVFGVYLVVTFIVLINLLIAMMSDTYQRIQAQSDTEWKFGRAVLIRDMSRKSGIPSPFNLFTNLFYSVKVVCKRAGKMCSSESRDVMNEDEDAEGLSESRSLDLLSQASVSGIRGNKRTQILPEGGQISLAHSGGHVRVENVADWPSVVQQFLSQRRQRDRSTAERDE

O=C(CCl)Nc1cn(-c2ccccc2)nc1-c1ccccc1
Absolute IC50 (CHOP) [1]: 10 µM | EC50 (BJ [2]): 14.4 µM (active) | IC50 (HEK293 [3]): > 20 µM (inactive) | EC50 [4]: > 20 µM (inactive) | AC50 [5]: 13.1 µM (active) | CC50 [6]: 6.92 µM (active) | IC50 (HEK293 [7]): 5.28 µM (active) | IC50 (HEK293 [8]): 9.25 µM (active) | AC50 [9]: 14.5 µM (active) | EC50 (BJ [10]): > 150 µM (inconclusive) | EC50 (Protein RecA): 6.32 µM (active) | IC50 (HEK293 [11]): > 20 µM (inactive) | EC50 [12]: 16.2 µM (active) | EC50 (HEK293 [13]): 4.78 µM (active) | EC50 (BJ [14]): 8.36 µM (active)

Cc1ccc(NC(=O)CN2C(=O)S/C(=C\c3ccc(C(=O)O)cc3)C2=O)cc1
IC50 [15]: 14.4 µM (active) | IC50 [16]: > 100 µM (inactive) | IC50 [17]: > 100 µM (inactive)

CCN1CCN(CCNC(=O)c2cn(Cc3ccccc3F)nn2)CC1
EC50 (Ion channel NompC): > 29.9 µM (inactive) | EC50 (Mucolipin-3): > 29.9 µM (not active)
